# What was measured:
# mouse TLR7 = molecular target: T1, mouse TLR7 (Mus musculus, UniProt P58681); experiment: Short-term in vivo (STIV) assay, plasma IL-6 after R848; settings: plasma IL-6 after R848 s.c., BALB/c mice
# T1 construct: tissue Jackson Labs; host or cells: live female BALB/c mice
# T1 sequence (P58681 27-1050): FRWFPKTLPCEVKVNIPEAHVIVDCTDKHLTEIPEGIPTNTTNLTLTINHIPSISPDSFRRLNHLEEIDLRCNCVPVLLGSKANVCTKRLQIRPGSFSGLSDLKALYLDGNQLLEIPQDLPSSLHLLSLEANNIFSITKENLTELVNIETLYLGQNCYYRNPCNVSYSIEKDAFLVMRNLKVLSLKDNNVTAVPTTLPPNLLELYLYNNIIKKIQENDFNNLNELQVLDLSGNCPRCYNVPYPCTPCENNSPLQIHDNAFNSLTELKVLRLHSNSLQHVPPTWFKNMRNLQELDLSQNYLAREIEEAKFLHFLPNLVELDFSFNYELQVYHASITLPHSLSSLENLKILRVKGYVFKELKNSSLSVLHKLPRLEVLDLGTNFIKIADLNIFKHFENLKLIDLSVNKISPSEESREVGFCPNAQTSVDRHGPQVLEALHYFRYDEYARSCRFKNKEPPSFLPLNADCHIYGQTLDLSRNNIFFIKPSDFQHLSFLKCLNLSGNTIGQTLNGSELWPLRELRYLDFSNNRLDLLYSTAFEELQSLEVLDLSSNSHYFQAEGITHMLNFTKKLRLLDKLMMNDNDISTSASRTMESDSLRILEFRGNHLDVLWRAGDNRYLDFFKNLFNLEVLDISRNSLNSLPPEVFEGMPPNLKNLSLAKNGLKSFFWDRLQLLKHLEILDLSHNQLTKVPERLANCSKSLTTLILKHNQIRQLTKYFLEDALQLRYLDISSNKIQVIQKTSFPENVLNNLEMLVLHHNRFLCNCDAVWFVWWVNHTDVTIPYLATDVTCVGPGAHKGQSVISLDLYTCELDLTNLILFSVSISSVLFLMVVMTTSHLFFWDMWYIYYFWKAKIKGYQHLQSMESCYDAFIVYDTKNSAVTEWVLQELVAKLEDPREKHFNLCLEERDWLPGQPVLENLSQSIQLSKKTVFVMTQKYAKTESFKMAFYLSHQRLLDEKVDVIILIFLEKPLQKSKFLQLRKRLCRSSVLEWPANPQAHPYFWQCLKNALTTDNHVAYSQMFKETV
# Description: To assess compound potency in vivo against mouse TLR7, a short-term in vivo (STIV) assay was utilized. Briefly, mice were orally dosed with compounds and at various time points afterwards were injected subcutaneously with agonist R848 to stimulate TLR7. The plasma IL-6 level following R848 stimulation was then measured by ELISA to assess compound potency and duration-of-action. […] Therefore, the activity of compounds in the STIV assay can be confidently attributed to their modulation of the TLR7 pathway.
# Six to eight week old female BALB/c mice (Jackson Labs, Bar Harbor, Me.) were dosed by oral gavage in 200 ul volume with antagonist compounds formulated in 0.5% aqueous methyl-cellulose (Sigma, St. Louis, Mo.). At various time points afterwards, mice were injected subcutaneously (s.c.) in 100 ul volume with 15 ug R848 (Resiquimod; GLSynthesis, Worcester, Mass.) to stimulate TLR7. Blood plasma was collected by cardiac puncture, and levels of IL-6 at 1.5 hours after TLR7 stimulation were then assessed by standard ELISA procedure according to the manufacturer's recommended protocol (R&D Systems).
# Human TLR4 = Human TLR4 (Homo sapiens, UniProt O00206); experiment: HEK-293 NFkB-luciferase reporter assay, LPS stimulation; format: cell-based; parameters: stably and individually express human TLR4, TLR7 or TLR9 full-length ORF cDNAs; expressed in transfected cells; host or cells: HEK-293 (ATCC) with ELAM-1 NF-kappaB luciferase reporter; settings: ligand LPS
# Sequence of Human TLR4 (O00206 24-839): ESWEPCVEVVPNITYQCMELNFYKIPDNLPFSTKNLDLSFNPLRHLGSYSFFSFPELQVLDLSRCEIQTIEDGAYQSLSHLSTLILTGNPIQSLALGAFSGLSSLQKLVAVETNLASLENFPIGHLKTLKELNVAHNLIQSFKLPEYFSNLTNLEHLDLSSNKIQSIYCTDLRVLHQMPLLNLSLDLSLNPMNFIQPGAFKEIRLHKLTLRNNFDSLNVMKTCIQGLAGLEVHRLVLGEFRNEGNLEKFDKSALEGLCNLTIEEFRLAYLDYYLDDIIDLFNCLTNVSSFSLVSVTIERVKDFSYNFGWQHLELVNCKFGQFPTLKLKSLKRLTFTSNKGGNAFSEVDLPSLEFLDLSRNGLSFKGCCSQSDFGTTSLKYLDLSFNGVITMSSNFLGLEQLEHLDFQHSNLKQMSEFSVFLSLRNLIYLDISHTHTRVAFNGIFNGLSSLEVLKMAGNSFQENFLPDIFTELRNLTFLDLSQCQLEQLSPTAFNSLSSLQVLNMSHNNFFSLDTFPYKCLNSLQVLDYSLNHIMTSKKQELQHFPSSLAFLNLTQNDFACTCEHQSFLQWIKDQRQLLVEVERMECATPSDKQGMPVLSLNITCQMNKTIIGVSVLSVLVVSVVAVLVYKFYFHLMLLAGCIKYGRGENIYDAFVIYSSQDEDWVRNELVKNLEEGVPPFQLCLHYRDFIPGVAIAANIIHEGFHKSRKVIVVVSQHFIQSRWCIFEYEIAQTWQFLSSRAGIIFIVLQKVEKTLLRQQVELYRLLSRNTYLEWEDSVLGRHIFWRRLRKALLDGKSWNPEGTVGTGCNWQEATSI
# Sequence of Human TLR4 (Q9Y6Y9 19-160 partner): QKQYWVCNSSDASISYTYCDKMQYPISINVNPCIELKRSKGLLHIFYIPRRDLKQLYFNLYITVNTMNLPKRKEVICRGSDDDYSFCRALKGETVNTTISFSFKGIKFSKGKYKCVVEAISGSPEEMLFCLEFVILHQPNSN
# Source text: HEK-293 cells (ATCC) were engineered to stably express a NF-kappaB transcription factor inducible E-selectin (ELAM-1) luciferase reporter derived from the plasmid pGL3 (Promega) containing base pairs −2241 bp to −254 bp from the promoter of the human E-selectin gene (Accession No. NM_000450). These cells were then subsequently engineered to stably and individually express human TLR4, TLR7 or TLR9 full-length ORF cDNAs. Human TLR4 cDNA (Accession No. NM_138554) was cloned into pcDNA 3.0 expression vector (Invitrogen). TLR4 transfected cells were also engineered to express human MD-2 co-receptor [MD-2 cDNA (Accession No. NM_015364) was cloned into the pEF-BOS vector] and were supplemented with 10 nM soluble CD14 (R&D Systems) in the media to optimize LPS responsiveness. Human TLR9 cDNA (Accession No. NM_017442) was cloned into the pBluescript II KS vector (Agilent). Human TLR7 cDNA (Accession No. NM_016562) was obtained from OriGene. HEK-293 cells stably expressing human TLR8 (Accession No. NM_138636) or mouse TLR7 (Accession No. NM_133211) were purchased from InvivoGen and were then stably transfected with pNiFty2(NF-kappaB)-luciferase reporter plasmid (InvivoGen). Each cell type was plated in Dulbecco's modified Eagle's medium (DMEM) containing 10% fetal bovine serum (FBS) at a density of 2.22×10^5 cells/ml into a 384-well plate and incubated for 2 days at 37° C., 5% CO2. […]
smiles,measurement,setting,value
"C[C@H]1C[C@@H](N)CN(c2ccc(C#N)c3ncccc23)C1 [ER-888840, 5-((3R,5S)-3-amino-5-methylpiperidin-1-yl)quinoline-8-carbonitrile]",% Suppression vs. Vehicle,"mouse TLR7; 6 h after oral dose, 33 mg/kg",100%
same,% Suppression vs. Vehicle,"mouse TLR7; 13 hr after oral dose, 11 mg/kg",53%
same,% Suppression vs. Vehicle,"mouse TLR7; 13 hr after oral dose, 33 mg/kg",95%
same,% Suppression vs. Vehicle,"mouse TLR7; 13 hr after oral dose, 100 mg/kg",100%
same,% Suppression vs. Vehicle,"mouse TLR7; 24 hr after oral dose, 11 mg/kg",24%
same,% Suppression vs. Vehicle,"mouse TLR7; 24 hr after oral dose, 33 mg/kg",0%
same,% Suppression vs. Vehicle,"mouse TLR7; 24 hr after oral dose, 100 mg/kg",98%
same,% Suppression vs. Vehicle,"mouse TLR7; 24 hr after oral dose, 300 mg/kg",100%
same,IC50,Human TLR4,> 10 µM

# — US9663486B2, “Selectively substituted quinoline compounds” (EISAI R&D MANAGEMENT CO., LTD., priority 2013, dated 2017)
